The record followed here is ChEMBL document CHEMBL1149987, “Synthesis and biological evaluation of new arachidonic acid analogs” (Bioorg Med Chem Lett, 1994).

Experiment [1] addresses T1, Polyunsaturated fatty acid 5-lipoxygenase (Homo sapiens, UniProt P09917).
T1 sequence (P09917 whole entry): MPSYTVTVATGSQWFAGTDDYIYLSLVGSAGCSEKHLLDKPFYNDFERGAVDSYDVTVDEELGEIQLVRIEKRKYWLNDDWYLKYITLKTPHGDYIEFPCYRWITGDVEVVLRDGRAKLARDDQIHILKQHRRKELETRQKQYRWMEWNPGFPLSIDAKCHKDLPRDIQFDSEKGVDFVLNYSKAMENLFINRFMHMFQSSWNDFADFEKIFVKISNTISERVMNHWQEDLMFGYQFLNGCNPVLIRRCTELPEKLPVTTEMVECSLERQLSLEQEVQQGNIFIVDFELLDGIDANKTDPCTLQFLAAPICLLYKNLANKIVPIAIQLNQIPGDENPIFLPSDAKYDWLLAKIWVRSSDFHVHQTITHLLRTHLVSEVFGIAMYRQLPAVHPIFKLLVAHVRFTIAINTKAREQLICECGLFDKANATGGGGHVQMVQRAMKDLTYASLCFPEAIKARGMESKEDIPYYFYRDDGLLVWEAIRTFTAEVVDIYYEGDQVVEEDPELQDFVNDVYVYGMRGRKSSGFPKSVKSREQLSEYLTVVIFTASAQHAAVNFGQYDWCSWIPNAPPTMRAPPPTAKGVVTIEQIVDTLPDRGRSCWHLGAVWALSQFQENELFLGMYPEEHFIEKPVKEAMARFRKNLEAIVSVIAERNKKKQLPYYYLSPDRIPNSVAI
The experiment in a line: Compound was tested for the inhibition of 5-lipoxygenase of human PMN stimulated by calcium ionophore A-23187 for the formation of 5-HETE.

Experiment [2] concerns the target T1, Polyunsaturated fatty acid 5-lipoxygenase. Put plainly: Compound was tested for the inhibition of 5-lipoxygenase of human PMN stimulated by calcium ionophore A-23187 for the formation of leukotriene B4 (LTB4).

pIC50: −log10 of the molar value.

With `CCCCC/C=C\C/C=C\[C@@H]1C[C@H]1/C=C\C/C=C\CCCC(=O)O` (stereo in doubt; (+)-7a), the negative-log IC50 (pIC50) in experiment [1] is 5.54; in experiment [2], 5.55.
With `CCCCC/C=C\C/C=C\[C@@H]1CC(C)=C(C)C[C@H]1/C=C\C/C=C\CCCC(=O)O`, the negative-log IC50 (pIC50) was 6.00 in experiment [1] and 5.80 in experiment [2].
Turning to `CCCCC/C=C\C/C=C\[C@H]1CC(C)=C(C)C[C@H]1/C=C\C/C=C\CCCC(=O)O`, the negative-log IC50 (pIC50) in experiment [1] was 5.96; in experiment [2], 5.72.
In the same order, the values of `CCCCC/C=C\C/C=C\[C@@H]1C[C@H]1/C=C\C/C=C\CCCC(=O)O` (stereo in doubt; (-)-7a) are 5.77 and 5.62.

The term pIC50 denotes the negative decadic logarithm of the IC50, by convention in mol/L.
